Test results: article PMC7582672, “Actions of FTY720 (Fingolimod), a Sphingosine-1-Phosphate Receptor Modulator, on Delayed-Rectifier K^+ Current and Intermediate-Conductance Ca^2+-Activated K^+ Channel in Jurkat T-Lymphocytes” (Molecules, 2020)

Target: T1, intermediate-conductance Ca2+-activated K+ channel (IKCa, KCa3.1) (Homo sapiens, UniProt O15554)
T1 construct: gene KCNN4
Test: cell-attached single-channel recording in Jurkat T-lymphocytes (activator)
Assay type: cell-based

T1 sequence (O15554 whole entry): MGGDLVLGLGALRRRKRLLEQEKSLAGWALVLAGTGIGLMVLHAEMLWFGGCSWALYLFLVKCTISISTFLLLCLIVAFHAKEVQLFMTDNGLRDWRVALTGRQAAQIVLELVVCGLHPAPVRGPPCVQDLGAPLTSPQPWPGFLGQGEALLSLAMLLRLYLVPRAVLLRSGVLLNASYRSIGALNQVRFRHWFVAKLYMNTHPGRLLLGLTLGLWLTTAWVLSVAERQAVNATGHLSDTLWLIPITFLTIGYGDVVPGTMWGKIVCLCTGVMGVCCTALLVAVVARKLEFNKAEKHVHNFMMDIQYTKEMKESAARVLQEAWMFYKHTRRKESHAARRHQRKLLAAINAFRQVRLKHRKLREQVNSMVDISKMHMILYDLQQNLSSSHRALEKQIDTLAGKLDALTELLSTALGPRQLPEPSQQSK

With `Oc1cc2ccccc2c2ccccc12` [9-phenanthrol] the “cell-attached single-channel recording in Jurkat T-lymphocytes (activator)” value was “activity of IKCa channels, which was sensitive to block by TRAM-34 and to stimulation by 9-phenanthrol, was readily detected”.
